Data on 28 compounds can be found in patent US20140288043A1, “PYRAZOLOPYRIDINE COMPOUNDS” (Genentech, Inc., priority 2013, published 2014).

pKi: −log10 of the molar value.

Sequence of LRRK2 (Q5S007 whole entry G2019S, form open, the tested form may be a part): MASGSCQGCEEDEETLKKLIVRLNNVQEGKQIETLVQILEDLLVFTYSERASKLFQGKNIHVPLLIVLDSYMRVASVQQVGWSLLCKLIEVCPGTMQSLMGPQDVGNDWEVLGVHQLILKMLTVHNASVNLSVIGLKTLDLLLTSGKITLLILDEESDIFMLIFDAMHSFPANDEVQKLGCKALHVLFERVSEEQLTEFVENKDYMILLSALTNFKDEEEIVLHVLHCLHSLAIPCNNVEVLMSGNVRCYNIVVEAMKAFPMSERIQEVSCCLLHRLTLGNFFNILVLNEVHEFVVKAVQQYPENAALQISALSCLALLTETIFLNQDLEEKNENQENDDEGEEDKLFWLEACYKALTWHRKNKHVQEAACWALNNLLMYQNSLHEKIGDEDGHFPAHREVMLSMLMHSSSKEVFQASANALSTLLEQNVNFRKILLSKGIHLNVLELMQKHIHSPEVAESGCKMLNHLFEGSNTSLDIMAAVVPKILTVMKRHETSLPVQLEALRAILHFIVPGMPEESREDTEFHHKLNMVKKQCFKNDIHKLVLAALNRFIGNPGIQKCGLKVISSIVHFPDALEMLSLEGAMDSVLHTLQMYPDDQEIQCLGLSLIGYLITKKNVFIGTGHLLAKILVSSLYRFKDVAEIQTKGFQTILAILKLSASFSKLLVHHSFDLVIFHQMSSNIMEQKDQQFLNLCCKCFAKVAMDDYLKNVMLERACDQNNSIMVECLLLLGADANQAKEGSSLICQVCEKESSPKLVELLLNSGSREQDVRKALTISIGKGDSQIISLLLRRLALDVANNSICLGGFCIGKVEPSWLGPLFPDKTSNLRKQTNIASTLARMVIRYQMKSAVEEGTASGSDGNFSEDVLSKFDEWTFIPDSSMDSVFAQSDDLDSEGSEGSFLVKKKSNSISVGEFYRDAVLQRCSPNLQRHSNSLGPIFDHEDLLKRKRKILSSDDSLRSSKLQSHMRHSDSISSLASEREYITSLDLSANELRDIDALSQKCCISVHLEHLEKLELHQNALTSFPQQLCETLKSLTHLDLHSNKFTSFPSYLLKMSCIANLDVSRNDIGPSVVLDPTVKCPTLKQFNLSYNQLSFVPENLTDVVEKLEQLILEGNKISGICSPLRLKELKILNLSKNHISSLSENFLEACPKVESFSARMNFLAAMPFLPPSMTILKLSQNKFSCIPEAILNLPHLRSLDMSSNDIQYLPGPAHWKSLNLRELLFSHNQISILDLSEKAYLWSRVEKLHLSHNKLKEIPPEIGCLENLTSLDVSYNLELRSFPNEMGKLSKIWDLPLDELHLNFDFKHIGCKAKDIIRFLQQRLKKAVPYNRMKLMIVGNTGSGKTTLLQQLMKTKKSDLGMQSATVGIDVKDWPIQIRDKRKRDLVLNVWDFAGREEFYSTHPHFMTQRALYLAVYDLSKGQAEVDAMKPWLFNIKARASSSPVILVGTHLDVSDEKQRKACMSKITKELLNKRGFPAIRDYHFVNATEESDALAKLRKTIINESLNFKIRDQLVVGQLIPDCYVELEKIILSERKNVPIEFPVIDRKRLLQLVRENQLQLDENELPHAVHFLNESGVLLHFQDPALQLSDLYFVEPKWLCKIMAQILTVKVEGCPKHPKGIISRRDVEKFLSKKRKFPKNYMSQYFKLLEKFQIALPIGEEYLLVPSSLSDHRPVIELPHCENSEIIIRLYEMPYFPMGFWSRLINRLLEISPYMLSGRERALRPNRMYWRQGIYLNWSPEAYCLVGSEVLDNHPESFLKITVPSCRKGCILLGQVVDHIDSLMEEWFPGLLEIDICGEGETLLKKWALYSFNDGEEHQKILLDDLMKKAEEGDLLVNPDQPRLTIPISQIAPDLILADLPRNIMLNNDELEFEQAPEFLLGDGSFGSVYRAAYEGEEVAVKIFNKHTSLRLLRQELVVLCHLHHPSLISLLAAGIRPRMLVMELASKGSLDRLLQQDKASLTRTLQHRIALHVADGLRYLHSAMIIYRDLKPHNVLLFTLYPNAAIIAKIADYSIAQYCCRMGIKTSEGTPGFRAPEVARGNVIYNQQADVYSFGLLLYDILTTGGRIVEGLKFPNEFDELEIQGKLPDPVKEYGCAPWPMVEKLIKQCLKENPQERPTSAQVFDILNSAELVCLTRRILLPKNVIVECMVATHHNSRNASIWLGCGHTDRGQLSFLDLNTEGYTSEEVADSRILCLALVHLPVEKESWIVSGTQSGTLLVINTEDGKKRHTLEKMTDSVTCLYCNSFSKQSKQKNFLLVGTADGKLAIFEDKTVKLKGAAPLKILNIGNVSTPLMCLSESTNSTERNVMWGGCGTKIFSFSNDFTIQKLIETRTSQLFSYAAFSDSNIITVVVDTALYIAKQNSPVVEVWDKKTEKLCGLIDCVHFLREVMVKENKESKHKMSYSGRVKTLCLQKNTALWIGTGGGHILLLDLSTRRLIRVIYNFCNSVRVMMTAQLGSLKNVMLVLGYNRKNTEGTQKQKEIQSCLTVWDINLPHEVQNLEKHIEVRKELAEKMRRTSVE

For the test, the target named is LRRK2 (Homo sapiens, UniProt Q5S007). As to the kind of experiment: LRRK2 protein kinase assay ([γ-33P] ATP, peptide substrate), KI values of Table 1. Format: biochemical. The note with it: LRRK2 affinity values. From the text:
All LRRK2 protein kinases were of human origin and were sourced from Invitrogen Corporation (Carlsbad, Calif. 92008 USA) unless otherwise indicated. The active mutant used was recombinant human, catalytic domain (amino acids 970-2527) containing a G2019S mutation, GST-tagged, expressed in insect cells (Invitrogen Cat#PV4881). The wild type used was recombinant human, catalytic domain (amino acids 970-2527) GST-tagged, expressed in insect cells (Invitrogen Cat#PV4873). The kinase dead mutant used was recombinant human, catalytic domain (amino acids 970-2527) containing a D1994A mutation, GST-tagged, expressed in insect cells (Invitrogen Cat#PM4041AE). No special measures were taken to activate any of the kinases.
All assays were carried out at room temperature (˜21° C.) and were linear with respect to time and enzyme concentration under the conditions used. Assays were performed for 180 min in a 96 well format. LRRK2 was present at a concentration of approximately 5 nM. The enzyme was diluted and assayed in 50 mM Tris-HCl pH7.5, 0.1 mM EGTA, 1 mM DTT and 10 mM MgCl2. The concentration of magnesium chloride in the assay was 10 mM. The [γ-33P] ATP (0.4 μCi/well) was used at 134 uM for G2019S mutant and at 57 μM for the wild type kinase in order to be at Km. The peptide substrate in the assay was […] at 100 μM.
The assays were initiated with Mg/ATP and stopped by the addition of 25 μl/well 50% orthophosphoric acid. Reactions were harvested onto Whatman P81 Unifilter Plates (Fisher Scientific. Loughborough, LE115RG, UK. Cat# FDU-105-020U) using a Tomtec harvester. (Tomtec Hamden, Conn. 06514. USA) Plates were counted using a Perkin Elmer Top Count NX7. (Perkin Elmer, Shelton Conn. 06484-4794 USA)
IC50 values of inhibitors were determined after carrying out assays at 10 different concentrations of each compound in duplicate.
Take `CCNc1nccc2[nH]nc(-c3cc(C(F)(F)F)ncn3)c12` [Compound 27, N-ethyl-3-(6-(trifluoromethyl)pyrimidin-4-yl)-1H-pyrazolo[4,3-c]pyridin-4-amine]: the pKi is 7.50.

For `CC(C)n1cnc(-c2n[nH]c3ccnc(NC4CCOCC4)c23)c1` [Compound 6, 3-(1-isopropyl-1H-imidazol-4-yl)-N-(tetrahydro-2H-pyran-4-yl)-1H-pyrazolo[4,3-c]pyridin-4-amine], the pKi is 8.48.

For `Cc1cc2[nH]nc(-c3cc(C(F)(F)F)ccn3)c2c(NC2CCOCC2)n1` [Compound 51, 6-methyl-N-(tetrahydro-2H-pyran-4-yl)-3-(4-(trifluoromethyl)pyridin-2-yl)-1H-pyrazolo[4,3-c]pyridin-4-amine], the pKi was 7.40. `CC(C)Nc1nccc2[nH]nc(-c3cc(C4CCOC4)ccn3)c12` (stereo not shown) [Compound 49, N-isopropyl-3-(4-(tetrahydrofuran-3-yl)pyridin-2-yl)-1H-pyrazolo[4,3-c]pyridin-4-amine] gave a pKi of 8.34. Next, `CC(C)Nc1nccc2[nH]nc(-c3cc(-c4cnn(C)c4)ccn3)c12` [Compound 35, N-isopropyl-3-(4-(1-methyl-1H-pyrazol-4-yl)pyridin-2-yl)-1H-pyrazolo[4,3-c]pyridin-4-amine]: 9.10; `CCNc1nccc2[nH]nc(-c3cn(C(C)C)nn3)c12` [Compound 9, N-ethyl-3-(1-isopropyl-1H-1,2,3-triazol-4-yl)-1H-pyrazolo[4,3-c]pyridin-4-amine]: 7.88; `O=C(c1ccnc(-c2n[nH]c3ccnc(NC4CCOCC4)c23)c1)N1CCC1` [Compound 63, azetidin-1-yl(2-(4-((tetrahydro-2H-pyran-4-yl)amino)-1H-pyrazolo[4,3-c]pyridin-3-yl)pyridin-4-yl)methanone]: 7.83. Next, `CC(C)Nc1nccc2[nH]nc(-c3cc(Cl)ccn3)c12` [Compound 30, 3-(4-chloropyridin-2-yl)-N-isopropyl-1H-pyrazolo[4,3-c]pyridin-4-amine]: 8.60; `CC1CC(Nc2nccc3[nH]nc(-c4cc(C(F)(F)F)ncn4)c23)CC(C)O1` (stereo not shown) [Compound 68, N-(2,6-dimethyltetrahydro-2H-pyran-4-yl)-3-(6-(trifluoromethyl)pyrimidin-4-yl)-1H-pyrazolo[4,3-c]pyridin-4-amine]: 7.63. In the case of `CC(C)Nc1nccc2[nH]nc(-c3cc(C(=O)N(C)C)ccn3)c12` [Compound 55, 2-(4-(isopropylamino)-1H-pyrazolo[4,3-c]pyridin-3-yl)-N,N-dimethylisonicotinamide], the pKi was 7.33. Next, `CC(C)Nc1nccc2[nH]nc(-c3cc(-c4ccnn4C)ccn3)c12` [Compound 36, N-isopropyl-3-(4-(1-methyl-1H-pyrazol-5-yl)pyridin-2-yl)-1H-pyrazolo[4,3-c]pyridin-4-amine]: 8.43. As to `Cc1cc2[nH]nc(-c3cc(C(=O)N(C)C)ccn3)c2c(NC2CCOCC2)n1` [Compound 60, N,N-dimethyl-2-(6-methyl-4-((tetrahydro-2H-pyran-4-yl)amino)-1H-pyrazolo[4,3-c]pyridin-3-yl)isonicotinamide], the pKi was 6.19. `FC1(F)CCC(Nc2nccc3[nH]nc(-c4ccncn4)c23)CC1` [Compound 38, N-(4,4-difluorocyclohexyl)-3-(pyrimidin-4-yl)-1H-pyrazolo[4,3-c]pyridin-4-amine] showed a pKi of 7.79.

For `CC(C)Nc1nccc2[nH]nc(-c3cc(C(=O)N(C)C)ncn3)c12` [Compound 62, 6-(4-(isopropylamino)-1H-pyrazolo[4,3-c]pyridin-3-yl)-N,N-dimethylpyrimidine-4-carboxamide], the pKi was 6.71. Compound `CC(C)Nc1nccc2[nH]nc(-n3cc(C(F)(F)F)cn3)c12` [Compound 32, N-isopropyl-3-(4-(trifluoromethyl)-1H-pyrazol-1-yl)-1H-pyrazolo[4,3-c]pyridin-4-amine] had a pKi of 8.04. Next, `CCNc1nccc2[nH]nc(-c3cn(C)nn3)c12` [Compound 10, N-ethyl-3-(1-methyl-1H-1,2,3-triazol-4-yl)-1H-pyrazolo[4,3-c]pyridin-4-amine]: 7.84; `CC(C)Nc1nccc2[nH]nc(-c3nnc(C4CC4)n3C)c12` [Compound 41, 3-(5-cyclopropyl-4-methyl-4H-1,2,4-triazol-3-yl)-N-isopropyl-1H-pyrazolo[4,3-c]pyridin-4-amine]: 6.82. `Cc1cccc(-c2n[nH]c3ccnc(NC4CCOCC4)c23)n1` [Compound 28, 3-(6-methylpyridin-2-yl)-N-(tetrahydro-2H-pyran-4-yl)-1H-pyrazolo[4,3-c]pyridin-4-amine]: the pKi is 8.74. With `CC(C)Nc1nccc2[nH]nc(-c3cc(N4CCOCC4)ccn3)c12` [Compound 3, N-isopropyl-3-(4-morpholinopyridin-2-yl)-1H-pyrazolo[4,3-c]pyridin-4-amine] the figure was 8.80. For `CC(C)Nc1nccc2[nH]nc(-c3ccccn3)c12` [Compound 13, N-isopropyl-3-(pyridin-2-yl)-1H-pyrazolo[4,3-c]pyridin-4-amine], the pKi was 7.96. Next, `FC1(F)CCC(Nc2nccc3[nH]nc(-c4cc(C(F)(F)F)ncn4)c23)CC1` [Compound 66, N-(4,4-difluorocyclohexyl)-3-(6-(trifluoro-methyl)pyrimidin-4-yl)-1H-pyrazolo[4,3-c]pyridin-4-amine]: 7.64; `Cc1nc(-c2n[nH]c3ccnc(NC4CCC(F)(F)CC4)c23)cc(C(F)(F)F)n1` [Compound 67, N-(4,4-difluorocyclohexyl)-3-(2-methyl-6-(trifluoromethyl)pyrimidin-4-yl)-1H-pyrazolo[4,3-c]pyridin-4-amine]: 7.69; `CC(C)Nc1nccc2[nH]nc(-c3cn(C(C)C)nn3)c12` [Compound 7, N-isopropyl-3-(1-isopropyl-1H-1,2,3-triazol-4-yl)-1H-pyrazolo[4,3-c]pyridin-4-amine]: 8.36. With `CCc1cc(-c2n[nH]c3ccnc(NC(C)C)c23)nn1C` [Compound 11, 3-(5-ethyl-1-methyl-1H-pyrazol-3-yl)-N-isopropyl-1H-pyrazolo[4,3-c]pyridin-4-amine] the figure was 8.46.

For the compound `FC(F)(F)c1cc(-c2n[nH]c3ccnc(NC4CC5CCC(C4)O5)c23)ncn1` (stereo not shown) [Compound 77, N-(8-oxabicyclo[3.2.1]octan-3-yl)-3-(6-(trifluoromethyl)pyrimidin-4-yl)-1H-pyrazolo[4,3-c]pyridin-4-amine], the negative logarithm of the Ki (pKi) was 7.65. With `CC(C)S(=O)(=O)c1ccnc(-c2n[nH]c3ccnc(NC4CCOCC4)c23)c1` [Compound 75, 3-(4-(isopropylsulfonyl)pyridin-2-yl)-N-(tetrahydro-2H-pyran-4-yl)-1H-pyrazolo[4,3-c]pyridin-4-amine] the figure was 7.63; with `CC(C)Nc1nccc2[nH]nc(-c3cc(C4CCOC4)ncn3)c12` (stereo not shown) [Compound 48, N-isopropyl-3-(6-(tetrahydrofuran-3-yl)pyrimidin-4-yl)-1H-pyrazolo[4,3-c]pyridin-4-amine], 7.92. With `Cc1cc(S(C)(=O)=O)cc(-c2n[nH]c3ccnc(NC(C)C)c23)n1` [Compound 76, N-isopropyl-3-(6-methyl-4-(methylsulfonyl)pyridin-2-yl)-1H-pyrazolo[4,3-c]pyridin-4-amine] the figure was 8.35.

The pKi is the negative decadic logarithm of the Ki, by convention in mol/L. Read a low pKi as a large Ki.
